Legend:
Mus musculus [1] = assay: Analgesic activity against acetic acid-induced writhing in mouse at 0.04 mmol/kg, sc relative to control; assay type: functional
Mus musculus [2] = assay: Analgesic activity in mouse assessed as latency time at 0.04 mmol/kg, sc by hot plate method relative to control; assay type: functional

`C(CN1CC[N+]2(CCCC2)CC1)CN1CC[N+]2(CCCC2)CC1.[Br-].[Br-]` was tested, and the inhibition in vivo at 40 µmol/kg (Mus musculus [1]) was 81% and the Activity (Mus musculus [2]) was 64.2%.
